Where “and” joins values, the source holds several entries; their conditions need not be identical. Identical values can stand only once.
Legend:
[1] = tested on: d-IBS; experiment: IBS-QOL questionnaire in d-IBS patients, rifaximin 550 mg BID vs placebo; format: in vivo, human; conditions: Week 4
Method: Both groups received placebo for an additional 14 days after the initial 2-week treatment. Quality of life was assessed with the 34-item IBS-QOL questionnaire at baseline and 4 weeks after initiating treatment. Each item was scored on a 5-point scale (1=not at all; 2=slightly; 3=moderately; 4=quite a bit; and 5=extremely or a great deal). Results for composite and subscale scores were converted to a scale ranging from 0 to 100, with higher scores indicating better QOL.
Following a 2-week initial treatment period, both groups of patients received placebo for an additional 14 days. Quality of life was assessed via the 34-item IBS-QOL questionnaire at baseline and 4 weeks after initiating treatment. Each item was scored on a 5-point scale (1=not at all; 2=slightly; 3=moderately; 4=quite a bit; 5=extremely or a great deal); results for composite and subscale scores were converted to a scale ranging from 0 to 100, with higher scores indicating better QOL.

[2] = tested on: CYP3A4; experiment: CYP3A4 induction study
[3] = tested on: non-constipation IBS; experiment: Study 2 (TARGET 2): rifaximin 550 mg TID 14 days vs placebo in non-C IBS, 10-week follow-up; format: in vivo, human
Method: The primary efficacy endpoint of the study was the proportion of subjects who achieved adequate relief of IBS symptoms for at least 2 weeks during the first 4 weeks of the 10-week follow-up phase.
Two measures of efficacy were assessed.
Subjects were questioned on the relief of overall IBS symptoms and bloating. […] The analyses defined success as a “yes” response to questions regarding adequate relief. […]
All subpopulations in the study responded to therapy. Baseline severity was determined during screening for Abdominal Pain/Discomfort and Bloating, and the number, type (normal, hard, loose) and urgency of bowel movements. Duration of effect was assessed in a ten week follow-up period. […]
In TARGET 1 and 2, the primary endpoint was the proportion of patients who achieved adequate relief of IBS symptoms for at least 2 of 4 weeks during the month following 14 days of treatment. Adequate relief was defined as a response of “yes” to the following weekly Subject Global Assessment (SGA) question: “In regards to your IBS symptoms, compared to the way you felt before you started study medication, have you, in the past 7 days, had adequate relief of your IBS symptoms? [Yes/No]”
The key secondary endpoint was the proportion of patients who achieved adequate relief of IBS-related bloating for at least 2 of 4 weeks during the month following 2 weeks of treatment. Adequate relief of IBS-related bloating was defined as a response of “yes” to the following weekly (every 7 days) SGA question: “In regards to your IBS symptom of bloating, compared to the way you felt before you started study medication, have you, in the past 7 days, had adequate relief of your IBS symptom of bloating? […]

[4] = rifaximin 1100 mg/d 14 d (n = 191)
[5] = 550 mg TID, Population: ITT (N = 315)
[6] = 550 mg TID, Population: PP (N = 311)
[7] = 550 mg TID, Weeks 3-6, Population: PP (N = 311)
[8] = 550 mg TID, at least 2 of Weeks 3-6, N = 315, LOCF
[9] = Age Group: <65 (N = 281), 550 mg TID, Weeks 3-6
[10] = Age Group: >=65, 550 mg TID, Weeks 3-6
[11] = Gender: Female (N = 226), 550 mg TID, Weeks 3-6
[12] = Gender: Male (N = 85), 550 mg TID, Weeks 3-6
[13] = IBS Subtype: Alternating-predominant, 550 mg TID, Weeks 3-6
[14] = IBS Subtype: Diarrhoea-predominant, 550 mg TID, Weeks 3-6
[15] = Race: Non-White (N = 31), 550 mg TID, Weeks 3-6
[16] = Race: White (N = 280), 550 mg TID, Weeks 3-6
[17] = Study 2, at least 2 weeks during PEP
[18] = TARGET 2, month following two weeks of treatment, 550 mg TID, N = 315

CO[C@H]1/C=C/O[C@@]2(C)Oc3c(C)c(O)c4c(O)c(c5c(nc6cc(C)ccn65)c4c3C2=O)NC(=O)/C(C)=C\C=C\[C@H](C)[C@H](O)[C@@H](C)[C@@H](O)[C@@H](C)[C@H](OC(C)=O)[C@@H]1C [Rifaximin, (2S,16Z,18E,20S,21S,22R,23R,24R,25S,26S,27S,28E)-5,6,21,23,25 Pentahydroxy-27-methoxy-2,4,11,16,20,22,24,26-octamethyl-2,7-(epoxypentadeca-(1,11,13)trienimino) benzofuro (4,5-e) pyrido(1,2-a) benzimidazole-1,15(2H)-dione,25-acetate]
Improvement with rifaximin over placebo, IBS-QOL Body image ([1]; 1100 mg/d): 37.4%
Improvement with rifaximin over placebo, IBS-QOL Dysphoria ([1]; 1100 mg/d): 25.3%
Improvement with rifaximin over placebo, IBS-QOL Food avoidance ([1]; 1100 mg/d): 22.1%
Improvement with rifaximin over placebo, IBS-QOL Health worry ([1]; 1100 mg/d): 30.6%
Improvement with rifaximin over placebo, IBS-QOL Interference with activity ([1]; 1100 mg/d): 22.2%
Improvement with rifaximin over placebo, IBS-QOL Overall score ([1]; 1100 mg/d): 28.7%
Improvement with rifaximin over placebo, IBS-QOL Relationship ([1]; 1100 mg/d): 39.5%
Improvement with rifaximin over placebo, IBS-QOL Sexual ([1]; 1100 mg/d): 24.9%
Improvement with rifaximin over placebo, IBS-QOL Social reaction ([1]; 1100 mg/d): 31.6%
Mean change from baseline in IBS-QOL, Body image [1, 4]: 20.1
Mean change from baseline in IBS-QOL, Dysphoria [1, 4]: 24.8
Mean change from baseline in IBS-QOL, Food avoidance [1, 4]: 25.0
Mean change from baseline in IBS-QOL, Health worry [1, 4]: 16.0
Mean change from baseline in IBS-QOL, Interference with activity [1, 4]: 22.2
Mean change from baseline in IBS-QOL, Relationship [1, 4]: 14.9
Mean change from baseline in IBS-QOL, Sexual [1, 4]: 13.6
Mean change from baseline in IBS-QOL, Social reaction [1, 4]: 17.3
Mean change from baseline in IBS-QOL, Overall score ([1]; rifaximin 1100 mg/d 14 d (n = 191), 0-100 scale): 20.4
CYP3A4 induction [2]: induces CYP3A4
Subjects with skin or subcutaneous tissue disorders ([3]; 550 mg TID): 1.3%
Adequate relief of IBS symptom of bloating based on daily measures, Failure [3, 5]: 182 (57.8%) N (%)
Adequate relief of IBS symptom of bloating based on daily measures, Success [3, 5]: 133 (42.2%) N (%)
Adequate relief of IBS symptoms based on daily measures, Failure [3, 5]: 200 (63.5%) N (%)
Adequate relief of IBS symptoms based on daily measures, Success [3, 5]: 115 (36.5%) N (%)
Adequate relief of IBS symptom of bloating based on daily measures, Failure [3, 6]: 180 (57.9%) N (%)
Adequate relief of IBS symptom of bloating based on daily measures, Success [3, 6]: 131 (42.1%) N (%)
Adequate relief of IBS symptoms based on daily measures, Failure [3, 6]: 196 (63.0%) N (%)
Adequate relief of IBS symptoms based on daily measures, Success [3, 6]: 115 (37.0%) N (%)
Adequate relief of IBS symptom of bloating (weekly SGA), Failure [3, 7]: 187 (60.1%) N (%)
Adequate relief of IBS symptom of bloating (weekly SGA), Success [3, 7]: 124 (39.9%) N (%)
Adequate relief of IBS symptoms (weekly SGA), Failure [3, 7]: 187 (60.1%) N (%)
Adequate relief of IBS symptoms (weekly SGA), Success [3, 7]: 124 (39.9%) N (%)
Adequate relief of IBS symptom of bloating (weekly SGA), Failure [3, 8]: 190 (60.3%) n (%)
Adequate relief of IBS symptom of bloating (weekly SGA), Success [3, 8]: 125 (39.7%) n (%)
Adequate relief of IBS symptoms (weekly SGA), Failure [3, 8]: 190 (60.3%) n (%)
Adequate relief of IBS symptoms (weekly SGA), Success [3, 8]: 125 (39.7%) n (%)
Subjects discontinued study early for Adverse Event/Serious Adverse Event ([3]; 550 mg TID, randomized subjects (316)): 0 n (%)
Adequate relief of IBS symptom of bloating (weekly SGA), Failure [3, 9]: 171 (60.9%) N (%)
Adequate relief of IBS symptom of bloating (weekly SGA), Success [3, 9]: 110 (39.1%) N (%)
Adequate relief of IBS symptoms (weekly SGA), Failure [3, 9]: 171 (60.9%) N (%)
Adequate relief of IBS symptoms (weekly SGA), Success [3, 9]: 110 (39.1%) N (%)
Adequate relief of IBS symptom of bloating (weekly SGA), Failure [3, 10]: 16 (53.3%) N (%)
Adequate relief of IBS symptom of bloating (weekly SGA), Success [3, 10]: 14 (46.7%) N (%)
Adequate relief of IBS symptoms (weekly SGA), Failure [3, 10]: 16 (53.3%) N (%)
Adequate relief of IBS symptoms (weekly SGA), Success [3, 10]: 14 (46.7%) N (%)
Adequate relief of IBS symptom of bloating (weekly SGA), Failure [3, 11]: 128 (56.6%) N (%)
Adequate relief of IBS symptom of bloating (weekly SGA), Success [3, 11]: 98 (43.4%) N (%)
Adequate relief of IBS symptoms (weekly SGA), Failure [3, 11]: 130 (57.5%) N (%)
Adequate relief of IBS symptoms (weekly SGA), Success [3, 11]: 96 (42.5%) N (%)
Adequate relief of IBS symptom of bloating (weekly SGA), Failure [3, 12]: 59 (69.4%) N (%)
Adequate relief of IBS symptom of bloating (weekly SGA), Success [3, 12]: 26 (30.6%) N (%)
Adequate relief of IBS symptoms (weekly SGA), Failure [3, 12]: 57 (67.1%) N (%)
Adequate relief of IBS symptoms (weekly SGA), Success [3, 12]: 28 (32.9%) N (%)
Adequate relief of IBS symptom of bloating (weekly SGA), Failure [3, 13]: 19 (55.9%) N (%)
Adequate relief of IBS symptom of bloating (weekly SGA), Success [3, 13]: 15 (44.1%) N (%)
Adequate relief of IBS symptoms (weekly SGA), Failure [3, 13]: 21 (61.8%) N (%)
Adequate relief of IBS symptoms (weekly SGA), Success [3, 13]: 13 (38.2%) N (%)
Adequate relief of IBS symptom of bloating (weekly SGA), Failure [3, 14]: 168 (60.6%) N (%)
Adequate relief of IBS symptom of bloating (weekly SGA), Success [3, 14]: 109 (39.4%) N (%)
Adequate relief of IBS symptoms (weekly SGA), Failure [3, 14]: 166 (59.9%) N (%)
Adequate relief of IBS symptoms (weekly SGA), Success [3, 14]: 111 (40.1%) N (%)
Adequate relief of IBS symptom of bloating (weekly SGA), Failure [3, 15]: 17 (54.8%) N(%)
Adequate relief of IBS symptom of bloating (weekly SGA), Success [3, 15]: 14 (45.2%) N(%)
Adequate relief of IBS symptoms (weekly SGA), Failure [3, 15]: 16 (51.6%) N(%)
Adequate relief of IBS symptoms (weekly SGA), Success [3, 15]: 15 (48.4%) N(%)
Adequate relief of IBS symptom of bloating (weekly SGA), Failure [3, 16]: 170 (60.7%) N (%)
Adequate relief of IBS symptom of bloating (weekly SGA), Success [3, 16]: 110 (39.3%) N (%)
Adequate relief of IBS symptoms (weekly SGA), Failure [3, 16]: 171 (61.1%) N (%)
Adequate relief of IBS symptoms (weekly SGA), Success [3, 16]: 109 (38.9%) N (%)
IBS symptom of bloating: adequate relief at least 2 out of 4 weeks during weeks 3 through 6 (weekly question) ([3]; Study 2 / TARGET 2): 41%
Global IBS symptoms: adequate relief at least 2 out of 4 weeks during weeks 3 through 6 (weekly question) ([3]; Study 2 / TARGET 2, 550 mg TID 14 d): 41% and 32% vs 41%
Responders: abdominal pain reduction of 1 point in weekly mean [3, 17]: 52%
Responders: abdominal pain reduction of 2 point in median [3, 17]: 41%
Responders: abdominal pain reduction of 3 point in mean [3, 17]: 6% vs 7%
Responders: abdominal pain reduction of 3 point in median [3, 17]: 21%
Responders: daily abdominal pain < 2 for at least 50% of days in a week [3, 17]: 39%
Responders: overall reduction of mean weekly abdominal pain by >= 25% [3, 17]: 58%
Responders: overall reduction of mean weekly abdominal pain by >= 50% [3, 17]: 35%
Responders: overall reduction of mean weekly abdominal pain by >= 75% [3, 17]: 14%
Responders: overall reduction of median weekly abdominal pain by >= 25% [3, 17]: 62%
Responders: overall reduction of median weekly abdominal pain by >= 50% [3, 17]: 44%
Abdominal Pain Responders: % [3, 18]: 52%
Abdominal Pain Responders: n [3, 18]: 165
Abdominal Pain and Stool Consistency Responders: % [3, 18]: 47%
Abdominal Pain and Stool Consistency Responders: n [3, 18]: 147
Adequate Relief of IBS Symptoms: % [3, 18]: 41%
Adequate Relief of IBS Symptoms: n [3, 18]: 128
Adequate Relief of IBS-Related Bloating: % [3, 18]: 41%
Adequate Relief of IBS-Related Bloating: n [3, 18]: 129
Stool Consistency Responders: % [3, 18]: 74%
Stool Consistency Responders: n [3, 18]: 233
Monthly responders for abdominal pain (≥30% decrease) and stool consistency (score <4) ([3]; TARGET 2, ≥2 weeks in month following 2 weeks of treatment): 47%
% with decrease in stool frequency (SF) ([3]; Week 1, 550 mg TID): 14.4%
% with decrease in stool frequency (SF) ([3]; Week 2, 550 mg TID): 20.6%
% with decrease in stool frequency (SF) ([3]; Week 3, 550 mg TID): 22.2%
% with decrease in stool frequency (SF) ([3]; Week 4, 550 mg TID): 21.6%
% with decrease in stool frequency (SF) ([3]; Week 5, 550 mg TID): 25.7%
% with decrease in stool frequency (SF) ([3]; Week 6, 550 mg TID): 22.9%
% with decrease in stool frequency (SF) ([3]; Week 7, 550 mg TID): 23.8%
% with decrease in stool frequency (SF) ([3]; Week 8, 550 mg TID): 24.4%
% with decrease in stool frequency (SF) ([3]; Week 9, 550 mg TID): 25.4%
% with decrease in stool frequency (SF) ([3]; Week 10, 550 mg TID): 26.7%
% with decrease in stool frequency (SF) ([3]; Week 11, 550 mg TID): 25.4%
% with decrease in stool frequency (SF) ([3]; Week 12, 550 mg TID): 27.0%
